For five molecules, Ki results are on record in ChEMBL document CHEMBL1140389, “Synthesis and biological activity of macrocyclic inhibitors of hepatitis C virus (HCV) NS3 protease” (Bioorg Med Chem Lett, 2005).

What is called Ki is a dissociation constant, usually derived from enzyme kinetics or from competition with a known ligand. High values mean lower affinity, low ones higher affinity.

Starred links: 1 amine or outer side, 2 acyl side, 3 side chain; linkers in the order of their positions; H or OH if unused. Positions of bridges follow the written chain, without caps; N, C: chain ends. Non-standard residues stand in square brackets, D forms with d. Residues, ends and D or L forms follow the SMILES beside them. *: point of attachment. Phe(3-(CH2)7CO) = O=C([C@H](Cc1cccc(CCCCCCCC(=O)[*:3])c1)N[*:1])[*:2]; X1 = CCCC(N[*:1])C(=O)C(=O)[*:2]; Chg = N[C@H](C(=O)O)C1CCCCC1; Phg = N[C@H](C(=O)O)c1ccccc1; OtBu = CC(C)(C)O*

In the assay the target is NS3 (Hepatitis C virus, UniProt A3EZJ3). Briefly: Inhibitory constant against NS3 serine protease of hepatitis c virus. The arrangement: species or system Hepacivirus hominis.
Chain of NS3 (A3EZJ3 whole entry): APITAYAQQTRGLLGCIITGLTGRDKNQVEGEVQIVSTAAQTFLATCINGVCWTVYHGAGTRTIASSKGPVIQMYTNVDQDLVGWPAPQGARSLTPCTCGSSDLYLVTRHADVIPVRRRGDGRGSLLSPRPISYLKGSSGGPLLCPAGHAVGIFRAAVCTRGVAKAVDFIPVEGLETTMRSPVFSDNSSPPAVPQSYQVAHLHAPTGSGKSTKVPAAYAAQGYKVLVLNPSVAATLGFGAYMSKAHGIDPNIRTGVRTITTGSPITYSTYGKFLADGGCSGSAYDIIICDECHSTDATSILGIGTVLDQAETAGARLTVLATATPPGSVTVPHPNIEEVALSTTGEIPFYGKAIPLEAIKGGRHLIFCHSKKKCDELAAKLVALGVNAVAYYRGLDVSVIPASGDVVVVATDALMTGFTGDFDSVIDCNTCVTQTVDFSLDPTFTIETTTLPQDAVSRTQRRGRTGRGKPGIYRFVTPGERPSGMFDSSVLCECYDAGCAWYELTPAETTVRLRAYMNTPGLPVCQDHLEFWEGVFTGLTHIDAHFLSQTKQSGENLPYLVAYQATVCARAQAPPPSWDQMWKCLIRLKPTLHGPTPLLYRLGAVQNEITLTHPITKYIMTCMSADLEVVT
In the case of `CCCC(NC(=O)[C@@H]1Cc2cccc(c2)/C=C/CCCCCC(=O)N[C@@H](C2CCCCC2)C(=O)N1)C(=O)C(=O)NCC(=O)N[C@H](C(=O)OC(C)(C)C)c1ccccc1` (stereo not given in full), the affinity, expressed as Ki, was 1200 nM.
`CCCC(NC(=O)[C@@H]1Cc2cccc(c2)CCCCCCCC(=O)N[C@@H](C2CCCCC2)C(=O)N1)C(=O)C(=O)NCC(=O)N[C@H](C(=O)OC(C)(C)C)c1ccccc1` (stereo not given in full) ([Chg][Phe(3-(CH2)7CO)][X1]G[Phg]-OtBu; lactam N-2): the Ki was determined as 2300 nM.
`CCCC(NC(=O)[C@@H]1Cc2cccc(c2)/C=C/CCCCCC(=O)N[C@@H](C2CCCCC2)C(=O)N1)C(=O)C(=O)NCC(=O)N[C@H](C(=O)O)c1ccccc1` (stereo not given in full): the affinity corresponds to a Ki of 84 nM.
On to `CCCC(NC(=O)[C@@H]1Cc2cccc(c2)CCCCCCCC(=O)N[C@@H](C2CCCCC2)C(=O)N1)C(=O)C(=O)NCC(=O)N[C@H](C(=O)N(C)C)c1ccccc1` (stereo not given in full) ([Chg][Phe(3-(CH2)7CO)][X1]G[Phg]-NMe2; lactam N-2), for which the affinity, expressed as Ki, was 110 nM.
For `CCCC(NC(=O)[C@@H]1Cc2cccc(c2)/C=C/CCCCCC(=O)N[C@@H](C2CCCCC2)C(=O)N1)C(=O)C(=O)NCC(=O)N[C@H](C(=O)N(C)C)c1ccccc1` (stereo not given in full), affinity was put at a Ki of 120 nM.
